Patent EP4578855A1, “PROLYL HYDROXYLASE INHIBITOR AND USE THEREOF” (Suzhong Pharmaceutical Group Co., Ltd., priority 2022, dated 2024)
pEC50, pIC50: −log10 of the molar value. “And” between values parts separate entries of the source, which are not always exact repeats. Equal entries are not always repeated. Where two headings read alike, the source gives them in different places.

What was measured:
PHD2 enzyme = biological target: T1, PHD2 enzyme (Homo sapiens, UniProt Q9GZT9); test: Detection of PHD2 enzyme activity inhibition (FITC-HIF1α tracer, mP read-out); assay type: biochemical
T1 construct: purchased Active motif
T1 sequence (Q9GZT9 whole entry, species assumed): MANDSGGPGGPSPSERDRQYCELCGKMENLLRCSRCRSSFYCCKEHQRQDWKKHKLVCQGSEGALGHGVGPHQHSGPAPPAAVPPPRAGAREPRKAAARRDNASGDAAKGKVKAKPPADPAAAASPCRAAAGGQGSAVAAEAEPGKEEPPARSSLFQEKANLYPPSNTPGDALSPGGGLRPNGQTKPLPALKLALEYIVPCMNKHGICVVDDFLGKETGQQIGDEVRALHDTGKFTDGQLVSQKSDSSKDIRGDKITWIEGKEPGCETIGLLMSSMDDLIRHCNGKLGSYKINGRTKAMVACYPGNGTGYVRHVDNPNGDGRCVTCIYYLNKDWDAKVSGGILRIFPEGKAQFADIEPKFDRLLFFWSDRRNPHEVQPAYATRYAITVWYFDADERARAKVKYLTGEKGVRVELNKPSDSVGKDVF
Procedure: (1) A 1×Assay buffer was prepared. […] 100 nL of 100% DMSO was added into a negative control well and a positive control well respectively. (3) An enzyme solution with 2 times final concentration was prepared with the 1×Assay buffer. (4) 5 µL of the enzyme solution with 2 times final concentration was added into a compound well and the positive control well respectively. (5) 5 µL of the 1 ×Assay buffer was added into the negative control well. (6) The 384-well plate was centrifuged at 1000 rpm for 30 seconds, oscillated and mixed evenly, and then incubated for 15 minutes. (7) A tracer solution with 2 times final concentration was prepared with the 1×Assay buffer, and 5.0 µL of the tracer solution with 2 times final concentration was added to start the reaction.

[1] = tested on: human hepatocarcinoma cell line Hep3B; test: In-vitro erythropoietin (EPO)-inducing activity experiment (EPO ELISA, OD450); assay type: cell-based; conditions: Homo sapiens, Hep3B cells, incubated 24 hours at 37°C
Procedure: In-vitro erythropoietin (EPO)-inducing activities of the compounds in Embodiments 10 to 12 were evaluated by using a human hepatocarcinoma cell line Hep3B (ATCC). Hep3B cells were cultured in an EMEM medium (Eagle's Minimum Essential Medium) at 37°C in the presence of 10% fetal bovine serum (FBS). Experimental steps were as follows: • (1) Cell preparation: the cells were inoculated in a 96-well plate, and cell plating was carried out according to an amount of 100 µL per well based on 2*10~4 per well. • (2) Preparation of compound concentration gradient: 100 µM, 20 µM, 2-parallel well detection. A solution with 200 times final concentration was prepared in a 96-well plate, the compound was diluted 200/3 times by using a cell culture medium, and then 50 µL of the compound was sucked for drug administration to the cells. 50 µL of DMSO-containing culture solution was added into a negative control well to make a final concentration contain 5 ‰ DMSO, and 50 µL of positive compound with the highest concentration was added into a positive control well to incubate the cells at 37°C for 24 hours. • (3) The reaction plate was washed twice with 1X Wash Buffer according to about 400 µL per well. • (4) 100 µL of diluted standard (comprising a standard blank control) was added into an appropriate well. • (5) 50 µL of sample and 50 µL of Sample Diluent were added into a sample well. • (6) 50 µL of 1X Biotin Conjugated Antibody were added into all wells to incubate the cells at room temperature for 1 hour. • (7) The reaction plate was washed with 1X Wash Buffer for 6 times according to about 400 µL per well. • (8) 100 µL of 1X Streptavidin-HRP was added in to each well to incubate the cells at room temperature for 15 minutes. • (9) The reaction plate was washed with 1X Wash Buffer for 6 times according to about 400 µL per well. • (10) 100 µL of TMB Substrate Solution was added into each well to incubate the cells at room temperature for 10 minutes. • (11) 100 µL of Stop Solution was added into each well. • (12) OD450 was read by EnSight.
The EPO-inducing activities of the compounds were expressed as the concentration for 50% of maximal effect (EC50).

EPO (erythropoietin) = test: Pharmacological evaluation: influence of continuous administration on EPO level; assay type: in vivo, SD rats
Procedure: This experiment was intended to evaluate an influence of continuous administration of the compounds prepared in Embodiments 12, 13 and 14 on EPO (erythropoietin) in SD rats.
• Line: SD (Sprague Dawley) • Weeks of age and weight: 8 weeks, weight 200 g to 220 g • Sex: male • Animal source: Beijing Vital River Laboratory Animal Technology Co., Ltd.
• Positive drug: Enarodustat • Description: commercialized drugs approved for marketing in Japan • Specification and content: 2 mg JTZ-951(Enarodustat), 140 capsules/box
After a week of adaptive feeding, SD rats were randomly divided into 3 groups, 6 rats in each group, which were namely a blank group, a positive drug group (Enarodustat) and a group of compound in Embodiment 12. An Enarodustat tablet was crushed by a mortar, then quantitatively added with 0.5% methyl cellulose, and magnetically stirred and mixed evenly; and the compound prepared in Embodiment 12 was weighed, then quantitatively added with 0.5% methyl cellulose, and magnetically stirred and mixed evenly. […] The drug was given once a day for 14 consecutive days, and blood was taken to measure an EPO level 4 hours after the drug was given on the 14th day.

[2] = Pharmacokinetic evaluation after intravenous injection or intragastric administration, plasma LC-MS/MS; assay type: in vivo, SD rats; conditions: male, Sprague-Dawley, rat, plasma, male SD rats
Text: After the compounds were given to SD rats by intravenous injection or intragastric administration, concentrations of related compounds in plasma were detected by an LC-MS/MS method, and pharmacokinetics and absolute bioavailability of the compounds prepared in Embodiments 13 and 14 in the rats were preliminarily evaluated.
2. Line: Sprague Dawley rats, sex: male, weight: 200 g to 250 g
Pharmacokinetic characteristics of rodents after intravenous injection and oral administration of the compounds were tested by a standard scheme. In the experiment, a candidate compound was prepared into a clear solution, and given to the rats by single intravenous injection and intragastric administration. A solvent for intravenous injection was a certain proportion of N,N-dimethylacetamide (DMA) and 10% Solutol HS15 solution, and a solvent for oral administration was a certain proportion of sodium carboxymethyl cellulose (CMC) suspension. 5 minutes, 15 minutes, 30 minutes, 1 hour, 2 hours, 4 hours, 6 hours, 8 hours, 10 hours and 24 hours after drug administration, blood samples of the animals were respectively collected into K2EDTA anticoagulation tubes, which were temporarily stored on ice until centrifugation.

[3] = test concentration from 10 µM, diluted 3 times into 10 concentrations, read-out: IC50

pIC50 (PHD2 enzyme; [3])	SMILES	also measured
7.70	O=C(O)CNC(=O)c1c(O)cc(Oc2ccccc2)n2ncnc12 [Compound in Embodiment 1]	–
–	O=C(O)CNC(=O)c1c(O)cc(CCc2ccccc2)n2ncnc12 [Enarodustat, reference compound]	pEC50 [1]: 4.82; EPO levels in serum of the rats (EPO (erythropoietin); after 14 days of administration, in words): increased significantly; EPO level after 14 days of administration (EPO (erythropoietin); individual rats 1-6, 0.3 mg/mL, 10 mL/kg, once a day for 14 consecutive days, blood 4 hours after the drug on the 14th day, 2904.6 pg/mL was an upper limit of measurement): 452.8 pg/mL and 396.3 pg/mL and 483.2 pg/mL and 404.5 pg/mL and 418.4 pg/mL and 442.3 pg/mL; EPO level after 14 days of administration, Mean (EPO (erythropoietin); mean of 6 rats, 0.3 mg/mL, 10 mL/kg, once a day for 14 consecutive days, blood 4 hours after the drug on the 14th day, 2904.6 pg/mL was an upper limit of measurement): 432.9 pg/mL; pIC50 (PHD2 enzyme): 7.66; AUC ([2]; route and dose not given, read-out: Concentration integral AUC): 11400 ng·h/mL; half-life ([2]; route and dose not given, read-out: Half-life period T1/2 (converted)): 67.2 min; bioavailability ([2]; oral, intragastric vs intravenous, read-out: Bioavailability F): 30.1%
7.47	CCCOc1cc(O)c(C(=O)NCC(=O)O)c2ncnn12 [Compound in Embodiment 9, (5-(propoxy)-7-hydroxy-[1,2,4]triazolyl[1,5-a]pyridine-8-carbonyl)glycine]	–
7.36	Cc1ccc(Oc2cc(O)c(C(=O)NCC(=O)O)c3ncnn23)cc1 [Compound in Embodiment 5, (5-(p-tolyloxy)-7-hydroxy-[1,2,4]triazolyl[1,5-a]pyridine-8-carbonyl)glycine]	–
7.46	O=C(O)CNC(=O)c1c(O)cc(Oc2ccccc2Cl)n2ncnc12 [Compound in Embodiment 2, (5-(2-chlorophenoxy)-7-hydroxy-[1,2,4]triazolyl[1,5-a]pyridine-8-carbonyl)glycine]	–
7.32	COc1ccc(Oc2cc(O)c(C(=O)NCC(=O)O)c3ncnn23)cc1 [Compound in Embodiment 6, (5-(p-methoxyphenoxy)-7-hydroxy-[1,2,4]triazolyl[1,5-a]pyridine-8-carbonyl)glycine]	–
7.33	O=C(O)CNC(=O)c1c(O)cc(C#Cc2ccccc2)n2ncnc12 [Compound in Embodiment 10, [(7-hydroxy-5-(phenylethynyl)-[1,2,4]triazolo[1,5-a]pyridine-8-carbonyl)amino]acetic acid]	pEC50 ([1]; Hep3B, 24 h): 5.19
7.52	O=C(O)CNC(=O)c1c(O)cc(Oc2cccc(Cl)c2)n2ncnc12 [Compound in Embodiment 3, (5-(3-chlorophenoxy)-7-hydroxy-[1,2,4]triazolyl[1,5-a]pyridine-8-carbonyl)glycine]	–
7.50	O=C(O)CNC(=O)c1c(O)cc(C=Cc2ccccc2)n2ncnc12 [Compound in Embodiment 11, [(7-hydroxy-5-(styryl)-[1,2,4]triazolo[1,5-a]pyridine-8-carbonyl)amino]acetic acid]	pEC50 ([1]; Hep3B, 24 h): 5.75
7.48	O=C(O)CNC(=O)c1c(O)cc(Oc2ccc(Cl)cc2)n2ncnc12 [Compound in Embodiment 4, (5-(4-chlorophenoxy)-7-hydroxy-[1,2,4]triazolyl[1,5-a]pyridine-8-carbonyl)glycine]	–
7.47	O=C(O)CNC(=O)c1c(O)cc(Oc2cccc(N3CCOCC3)c2)n2ncnc12 [Compound in Embodiment 7, (5-(3-morpholinphenoxy)-7-hydroxy-[1,2,4]triazolyl[1,5-a]pyridine-8-carbonyl)glycine]	–
–	Cc1nc(C(=O)NCC(=O)O)c(O)c2ccc(Oc3ccccc3)cc12 [FG-4592, Roxadustat, reference compound]	pEC50 ([1]; Hep3B, 24 h): 4.86
7.45	O=C(O)CNC(=O)c1c(O)cc(Oc2ccc(F)cc2)n2ncnc12 [Compound in Embodiment 8, (5-(4-fluorophenoxy)-7-hydroxy-[1,2,4]triazolyl[1,5-a]pyridine-8-carbonyl)glycine]	–
